In brackets after ≈: the same amount, converted by molar mass.
Assay: Solubility of losartan as a function of pH
Assay type: physicochemical
Conditions: water
Description: It is thus conceived that for losartan, whose solubility depends greatly on the gastric pH (cf. table below), the solubilization, and thus ultimately the plasmatic concentration profile, is subject to great variation from one individual to another and, for the same individual, from one day to another.

Q: With CCCCc1nc(Cl)c(CO)n1Cc1ccc(-c2ccccc2-c2nn[nH]n2)cc1 [losartan, {2-butyl-4-chloro-1-[4-[2-(1H-tetrazol-5-yl)phenyl]benzyl]-1H-imidazol-5-yl}methanol] as the compound, how does the solubility (aqueous buffer, pH 3.0, 37° C.) read?
A: The solubility was 0.1 mg/mL (≈ 0.236 mM).

Q: And the solubility (aqueous buffer, pH 4.5, 37° C.)?
A: Its solubility is 0.12 mg/mL (≈ 0.284 mM).

Q: What about the solubility (aqueous buffer, pH 5.0, 37° C.) of the same compound?
A: The solubility was 0.3 mg/mL (≈ 0.709 mM).

Q: What about the solubility (aqueous buffer, pH 6.0, 37° C.) of the same compound?
A: The solubility was 1.2 mg/mL (≈ 2.84 mM).

Q: What about the solubility (aqueous buffer, pH 6.8, 37° C.) of the same compound?
A: Its solubility is 10 mg/mL (≈ 23.6 mM).

Q: What about the solubility (aqueous buffer, pH 8.5, 37° C.) of the same compound?
A: The solubility was over 550 mg/mL.

Q: And the solubility (simulated gastric fluid, pH 1.4, 37° C.)?
A: Its solubility is 1 mg/mL (≈ 2.36 mM).

Q: What about the solubility (simulated gastric fluid, pH 2.0, 37° C.) of the same compound?
A: The solubility was 0.6 mg/mL (≈ 1.42 mM).

Source: patent US20090123536A1, “Oral Pharmaceutical Form of Losartan” (Flamel Technologies, S.A., priority 2005, published 2009)
